Test results as given in patent publication EP0253662B1, “Pharmaceutical compositions” (ED. GEISTLICH SÖHNE AG FÜR CHEMISCHE INDUSTRIE, priority 1986, dated 1988).
Converted amounts (≈) assume the structure as drawn.

Columns and labels:
[1] = water-solubility; format: physicochemical; details: in water
Procedure: However, the water-solubility of both compounds is relatively low, namely I g/litre in the case of taurolidine and 8 g/litre in the case of taurultam. Relatively large quantities of the compounds are required where toxaemia is well established and even where the compounds are administered in large volumes by intravenous infusion, low solubility can limit their use. In particular, during treatment of patients suffering from septic shock and consequent renal insufficiency, administration of significant quantities of liquid (after an initial period of volume compensation) is contra-indicated and the intravenous infusion solution should be as concentrated as possible. Where glucose is present, this is also beneficial in such cases in order to support the brain cells.

[2] = intravenous infusion tolerance (vagotonic side effects); format: in vivo
Text: This is a surprising effect of considerable value in ensuring that taurolidine can be given intravenously at a rapid rate of infusion, for example in cases of endotoxin shock. In general, the overall intravenous tolerance of taurolidine is increased by the presence of glucose. The same advantages apply also to taurultam.

## O=S1(=O)CCNCN1 [taurultam]
[1]
  solubility: 8000 µg/mL (≈ 58.7 mM)

## O=S1(=O)CCN(CN2CCS(=O)(=O)NC2)CN1 [taurolidine]
[2]; 2% aqueous taurolidine containing polyvinylpyrrolidone, administered intravenously, high rates of infusion
  vagotonic side effects, such as meiosis, lachrymation, salivation, bradycardia and excitation: short duration vagotonic side effects occur
[2]; administered in glucose solution rather than polyvinylpyrrolidone, intravenously
  vagotonic effects: such vagotonic effects are not observed
